In the METLIN SMRT retention time set (Domingo-Almenara et al. 2019):

Experiment: gradient 5% acetonitrile 3 min, to 50% in 2 min, to 85% in 15 min, held 3 min, 100 µL/min
Conditions: column: Zorbax Extend-C18 2.1 x 50 mm; eluents: water / acetonitrile, 0.1% formic acid
Outline: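 Retention times of pure standards were taken from adduct peaks that were selected by computer and manually inspected. Over 3 months, mixtures of ~100 molecules were run by HPLC–quadrupole time-of-flight mass spectrometry in positive and negative ionization mode. The Zorbax Extend-C18 column (2.1 × 50 mm, 1.8 μm) ran at 100 μL/min in water and acetonitrile, each containing 0.1% formic acid, with 40 μL dead volume and 900 μL dwell volume.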

RP-LC retention time [s] | SMILES
758 | O=C(Cn1nc(C(=O)N2CCCC2)c2ccccc21)NC1CCCC1
997 | N#Cc1c(N)nc(SCC(=O)c2ccc(Br)cc2)c(C#N)c1-c1ccccc1
847 | COc1cccc(C(=O)CSc2ccc(-n3cccn3)nn2)c1
1020 | COc1ccc(Cn2cccc2-c2nc(C)no2)cc1
835 | COc1ccc(N2CCN(c3nccc4ccc(C(=O)NC5CCCCCC5)cc34)CC2)cc1
827 | CCc1noc(NC(C)=O)c1-c1ccc(C)c(S(=O)(=O)NCc2ccccc2OC)c1
793 | CSc1cccc(NC(=O)N2CCC3(CC2)NC(=O)c2ccccc2O3)c1
663 | CCC1CN(C(=O)N2CCC(C(=O)NCCCN3CCCCCC3)CC2)c2ccccc2O1 (stereo not given)
882 | O=C(Nc1ccc2c(c1)OCO2)Nc1ccc2c(c1)N(C(=O)c1ccccc1)CC2
796 | CCCCNC(=O)CCc1c(C)n(CC)c2nc(-c3ccccc3)nn2c1=O
858 | Cc1ccc(NC(=O)N2C[C@H](c3nc(-c4ccncc4)no3)[C@@H](C)C2)cc1C
764 | CN1C(=O)C2(CCN(C(=O)c3ccc(F)cc3)C2)c2ccccc21 (stereo not given)
563 | CCC(=O)N1CCc2cc(N3CC(C(=O)N4CCN(C)CC4)CC3=O)ccc21 (stereo not given)
683 | Cc1cnc(C2CCC2)n1CC1CCN(S(=O)(=O)Cc2cccc(F)c2)C1 (stereo not given)
909 | CCCCCC(=O)N1CCCCC1
694 | COc1ccccc1CNS(=O)(=O)c1cc(-c2[nH]ncc2C(=O)N2CCCC2)oc1C
891 | Cc1ccc(CNC(=O)CN2C(=O)CCCc3cc(S(=O)(=O)N4CCCCC4)ccc32)cc1
1070 | O=C(c1ccoc1)N1CC(Oc2cccc(-c3nc(-c4ccccc4)no3)c2)C1
1030 | Cc1ccc(N2C(=O)C3N=NN(Cc4nc(-c5ccccc5Br)no4)C3C2=O)cc1C (stereo not given)
736 | O=S(=O)(Nc1cccn2cnnc12)c1ccc2c(c1)CCC2
872 | COc1ccc(OC)c(CNC(=O)C2=C3CCCN3c3ccc(F)cc3S2(=O)=O)c1
637 | O=C(Cn1nc2nc(Nc3ccc(F)cc3)ccn2c1=O)NCC1CCCO1 (stereo not given)
1040 | Cc1cc(Cl)ccc1NC(=O)Cn1cccc1-c1nnc(C2CCC2)o1

RP-LC retention time [s] | SMILES
679 | CCOCCCNC(=O)C1CCN(c2cnn(Cc3ccccc3)c(=O)c2)CC1
686 | CCOC(=O)CNC(=O)NCCn1c(C(F)(F)F)nc2ccccc21
657 | CCOc1ccc(NC(=O)c2cn3c4c(ccc(Cl)c4c2=O)OCC3)cc1
660 | CCCN(C(=O)Nc1ccc(CC)cc1)c1nc(-c2ccc(Br)cc2)cs1
843 | CC1=C(c2ccc(Cl)cc2)S(=O)(=O)N=C1N1CCCN(C(=O)c2ccsc2)CC1
729 | O=C(NCC1CCCO1)c1nnc(-c2ccc(S(=O)(=O)N3CCCC3)cc2)o1 (stereo not given)
917 | COc1ccc(-c2nnc(-c3cc(S(=O)(=O)NCC4CCCO4)ccc3Cl)o2)cc1 (stereo not given)
861 | Cc1cccc(N2CCN(C(=O)CC3COc4ccccc4NC3=O)CC2)c1C (stereo not given)
1000 | COc1ccc(-n2c(SCc3nc(-c4ccc(C)cc4)no3)nnc2-c2ccncc2)cc1
559 | Cc1ncsc1CN1CC(c2ncc(C)n2Cc2ccccc2)C1
716 | CC(=O)O[C@@H]1CC[C@@]2(C)[C@H](C1)[C@H](OC(C)=O)C[C@@H]1[C@@H]2C[C@H]2[C@@H]3CN4C[C@H](C)CC[C@H]4[C@H](C)[C@H]3CC[C@@]12O
657 | COc1ccc(NC(=O)c2c[nH]c3ncccc23)c(C)c1
1000 | Cc1nc2cc(-c3noc(-c4ccc(C#N)cc4F)n3)ccc2o1
798 | COc1cccc(CNC(=O)C2CCN(S(=O)(=O)c3ccc4c(c3)sc(=O)n4C)CC2)c1
850 | Cc1nc(-n2c(C)ccc2C)sc1C(=O)NC1CC1
753 | CCCN1C(=O)c2cccnc2Sc2cc(C(=O)NC(C)C)ccc21
802 | COc1ccc(S(=O)(=O)N2CCC(c3noc(-c4ccccn4)n3)C2)cc1 (stereo not given)
1030 | COc1ccc(Cl)cc1NC(=O)C1CCN(S(C)(=O)=O)c2ccccc2O1 (stereo not given)
735 | Cc1ccccc1Cn1cc(-c2ccncc2)cc1C(=O)NCc1ccccc1
833 | CCc1ccc(-c2csc(NC3OC(=O)c4ccccc43)n2)cc1 (stereo not given)
646 | O=C(Nc1ncn[nH]1)c1ccccc1
967 | CCCc1noc(-c2ccc(-n3ncc(C(=O)N4CCSCC4)c3C)nc2)n1
776 | O=C(O)c1ccccc1C(=O)Nc1cccc([N+](=O)[O-])c1

RP-LC retention time [s] | SMILES
1120 | Cc1noc(-c2nc(-c3ccc(OC(C)C)cc3)no2)n1
769 | CC(NC(=O)c1cc(=O)[nH]c2ccc(Br)cc12)c1ccccc1 (stereo not given)
648 | O=C(CSc1nnc(C2COc3ccccc3O2)o1)NCc1ccco1 (stereo not given)
924 | O=c1c2nc(-c3ccc(Br)cc3)cn2ccn1-c1ccc(F)c(F)c1
654 | Cc1c(Cl)cccc1S(=O)(=O)NCC1CCN(C(=O)c2cccn(C)c2=O)CC1
769 | CCOc1ccccc1C(=O)NC1CCN(c2cc(-c3cccs3)[nH]n2)C1 (stereo not given)
718 | Cc1ccccc1-c1noc(C2CC(=O)N(c3ccc4c(c3)OCO4)C2)n1 (stereo not given)
646 | CN(CCc1ccc(Cl)c(Cl)c1)CCN1CCCC1
874 | Cc1ccc(CNC(=O)C2(C)CN(S(C)(=O)=O)CC(=O)N2c2ccc(C)c(Cl)c2)cc1 (stereo not given)
550 | O=C(N[C@@H]1CN(c2ccncn2)C[C@H]1CO)C1CCCC1
741 | CCOCCOC1CCN(C(=O)c2sccc2C)CC1
1230 | CCc1nc2cc(-c3noc(-c4cccc(N(C)C)c4)n3)ccc2o1
607 | COc1ccc(NC(C)=O)cc1NS(=O)(=O)C1CC1
639 | Nc1ccc(Nc2ccccc2)c(S(=O)(=O)O)c1
791 | CCN1C(=O)c2cccnc2Sc2cc(CNC(=O)c3cccc(F)c3)ccc21
568 | O=C(NCc1cccnc1)C1(c2ccc(F)cc2)CC1
735 | CC1CCN(CCNS(=O)(=O)c2ccccc2-c2nc(-c3ccccc3)no2)CC1
654 | CC1CCCN(Cc2nc(Cn3ccn4nc(-c5ccccc5)cc4c3=O)no2)C1 (stereo not given)
1030 | CCCCN1C(=O)C(C)(C(=O)NCc2cccc(C)c2)Oc2cccnc21 (stereo not given)
656 | N#Cc1cccc(-c2cn3c(n2)N(C(=O)c2ccccn2)CCC3)c1
698 | Cc1cc(C)n(CCC(=O)NCC23CCC=C2N(CC2CC2)C(=O)CC3)n1 (stereo not given)
624 | Cc1cccc(NC(=O)CC(=O)Nc2ccc3nc4n(c(=O)c3c2)CCCCC4)n1
754 | CCOc1cc(-c2ccccc2)nc2ccc(NC(=O)c3cccs3)cc12

RP-LC retention time [s] | SMILES
697 | O=C(NCc1csc(C2CCN(C(=O)c3ccc(F)cc3F)CC2)n1)C1CC1
770 | COc1ccc(OCc2noc(CNC(=O)NCc3ccc(F)cc3)n2)cc1
965 | COc1cc(C(=O)NC(C)COc2ccc(C(C)C)cc2)cc(OC)c1OC (stereo not given)
763 | Cc1cccc(CNC(=O)C2CCN(S(=O)(=O)c3cc(C(=O)N4CCOCC4)cs3)CC2)c1
834 | CCOC(=O)c1c(S(=O)(=O)N2CCC(C(=O)Nc3cccc(OC)c3)CC2)c(C)n(C)c1C
866 | COc1cc(=O)n(-c2ccccc2)nc1C(=O)N1c2ccc(F)cc2CCC1C (stereo not given)
967 | Cc1cc(C)cc(S(=O)(=O)N2CCC(C(=O)NCc3csc(-c4cccs4)n3)CC2)c1
866 | COc1ccc(C(C)NC(=O)Cn2c(C)cc(-c3nnc(C4CCC4)o3)c2C)cc1 (stereo not given)
824 | O=C(CN1CCN(Cc2ccc(F)cc2)C1=O)N1CCN(c2ccccc2)CC1
561 | CCN1CCN(CCNC(=O)C2CCN(Cc3cn(C)c4ccc(Cl)cc34)CC2)CC1
748 | Brc1ccc2nc(-c3ccccc3)c(Nc3ccc4c(c3)OCO4)n2c1
621 | Cc1ccccc1Cn1cc(-c2ccncc2)cc1C(=O)N1CCOCC1
626 | Cc1nc(C)c(C(=O)N(C)C2CCc3nn(CC4CC4)c(=O)n3CC2)s1 (stereo not given)
697 | CC(C)CNC(=O)N1CCCC(CCc2nnc(-c3cnccn3)o2)C1 (stereo not given)
1070 | Cc1cccc(-c2noc(Cc3nnc(-c4ccc(F)cc4)o3)n2)c1
815 | CCn1cc(S(=O)(=O)N2C[C@H]3CN(S(=O)(=O)c4cccc(F)c4)C[C@@H](C2)O3)cn1
1190 | Cc1nn(-c2nc(CC(=O)N3CCC(C)CC3)cs2)c(C)c1Cl
766 | CCn1c(=O)c(C(=O)NCc2ccc(C)o2)nc2cccnc21
602 | Cc1ccc(CNC(=O)Cn2ccnc2-c2ccnc(N3CCCC3)c2)cc1
631 | CN(CCCNC(=O)Cn1c(=O)c2cccn2c2ccccc21)Cc1ccccc1
603 | Cc1ccc(C2CN(S(=O)(=O)c3ccccc3)CCN2C)cc1 (stereo not given)
